Source: ChEMBL document CHEMBL1201862, “PubChem BioAssay data set” (2004)
The source made the active and inactive calls.

Experiments:
[1] = biological target: T1, Apoptotic protease-activating factor 1 (Homo sapiens, UniProt O14727); experiment: SAR analysis of small molecule Activators of Apaf-1 in a Fluorescent assay.; format: functional; conditions: read-out: EC50_Mean
T1 sequence (O14727 whole entry): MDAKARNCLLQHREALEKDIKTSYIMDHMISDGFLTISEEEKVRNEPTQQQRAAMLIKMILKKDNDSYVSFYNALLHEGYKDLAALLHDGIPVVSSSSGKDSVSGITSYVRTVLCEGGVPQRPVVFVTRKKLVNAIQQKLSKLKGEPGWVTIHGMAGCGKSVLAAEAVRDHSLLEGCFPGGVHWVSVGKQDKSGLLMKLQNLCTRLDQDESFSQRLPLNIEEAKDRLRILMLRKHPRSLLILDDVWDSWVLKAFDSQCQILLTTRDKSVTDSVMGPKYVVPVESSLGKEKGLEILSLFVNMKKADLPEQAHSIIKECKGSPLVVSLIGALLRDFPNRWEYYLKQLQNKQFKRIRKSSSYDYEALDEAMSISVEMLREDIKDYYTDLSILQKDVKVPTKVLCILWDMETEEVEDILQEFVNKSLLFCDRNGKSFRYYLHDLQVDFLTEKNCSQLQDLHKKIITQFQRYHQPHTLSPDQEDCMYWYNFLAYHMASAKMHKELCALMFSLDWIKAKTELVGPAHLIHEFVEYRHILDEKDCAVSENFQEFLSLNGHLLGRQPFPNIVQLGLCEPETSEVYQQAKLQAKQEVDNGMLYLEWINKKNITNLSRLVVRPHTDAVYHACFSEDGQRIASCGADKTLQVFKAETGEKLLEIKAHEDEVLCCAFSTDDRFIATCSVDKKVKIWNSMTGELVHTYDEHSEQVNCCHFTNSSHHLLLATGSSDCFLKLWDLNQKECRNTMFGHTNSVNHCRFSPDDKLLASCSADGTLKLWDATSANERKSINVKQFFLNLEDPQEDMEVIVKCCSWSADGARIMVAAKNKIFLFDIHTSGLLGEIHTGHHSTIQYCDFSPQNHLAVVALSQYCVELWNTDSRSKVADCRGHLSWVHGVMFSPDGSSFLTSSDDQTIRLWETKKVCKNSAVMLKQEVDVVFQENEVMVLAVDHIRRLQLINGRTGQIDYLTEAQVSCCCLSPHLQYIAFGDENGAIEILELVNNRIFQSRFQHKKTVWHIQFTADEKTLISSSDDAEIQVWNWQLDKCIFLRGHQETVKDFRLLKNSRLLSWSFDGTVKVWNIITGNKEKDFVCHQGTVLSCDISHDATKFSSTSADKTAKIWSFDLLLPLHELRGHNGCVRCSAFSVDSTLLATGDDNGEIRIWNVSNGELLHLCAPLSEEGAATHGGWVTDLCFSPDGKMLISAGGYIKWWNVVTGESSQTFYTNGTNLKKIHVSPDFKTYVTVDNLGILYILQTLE

[2] = biological target: Ras and Rab interactor 1/Tyrosine-protein kinase ABL1 (Homo sapiens, UniProt P00519+Q13671); format: functional;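 also: biochemical TR-FRET dose-response test measuring inhibition of binding between Rin1 and Abl proteins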
[3] = viability of HCT116 lacking mutant beta-catenin – cell-based, human colon tumor, dose response (AID 1045); format: functional;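 also: HCT116 colon tumor cells with beta catenin knocked out; cells exposed to compound for 60 hours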
[4] = biological target: Hepatocyte nuclear factor 4-alpha (Homo sapiens, UniProt P41235); format: functional, cell-based;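 also: biochemical luminescence-based dose-response counterscreen measuring inhibition of HNF4 dimerization, run alongside a screen for blockers of ABHD5–perilipin-5 interaction; split luciferase complementation of HNF4 fusion proteins in cell lysate measuring dimerization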
[5] = viability of PTEN-deleted HCT116 cells – cell-based, HCT116 PTEN knockout, dose response (AID 1047); format: functional;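 also: HCT116 colon tumor cells with PTEN knocked out; cells exposed to compound for 60 hours before readout; potency for loss of cell viability measured by luminescence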
[6] = biological target: T2, Carboxy-terminal domain RNA polymerase II polypeptide A small phosphatase 1 (Homo sapiens, UniProt Q9GZU7); experiment: CTDSP1 inhibitors, concentration-response, biochemical, absorbance readout, ultra-high-throughput screen actives (AID 540297); format: functional
T2 sequence (Q9GZU7 whole entry): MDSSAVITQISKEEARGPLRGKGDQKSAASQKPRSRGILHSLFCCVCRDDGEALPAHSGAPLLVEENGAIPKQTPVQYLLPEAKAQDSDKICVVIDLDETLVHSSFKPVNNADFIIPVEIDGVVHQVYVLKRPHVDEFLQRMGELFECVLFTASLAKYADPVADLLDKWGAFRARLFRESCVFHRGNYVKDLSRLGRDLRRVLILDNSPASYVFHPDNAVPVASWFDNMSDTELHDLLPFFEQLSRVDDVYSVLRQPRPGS

[7] = biological target: T3, Low molecular weight phosphotyrosine protein phosphatase (Homo sapiens, UniProt P24666); format: functional; conditions: read-out: IC50_Mean
T3 sequence (P24666 whole entry): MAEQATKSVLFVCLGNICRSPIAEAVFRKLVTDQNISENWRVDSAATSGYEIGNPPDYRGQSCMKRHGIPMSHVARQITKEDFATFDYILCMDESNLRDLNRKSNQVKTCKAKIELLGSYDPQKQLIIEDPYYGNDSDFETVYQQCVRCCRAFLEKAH

[8] = biological target: T3, Low molecular weight phosphotyrosine protein phosphatase; format: functional; conditions: read-out: IC50_Mean; remark: listed apart in the source
HEK293 [9] = experiment: inhibition of NOD1-driven NF-kB reporter – cell-based, luminescence, uHTS, primary screen (AID 1578); format: functional; conditions: Homo sapiens
HEK293 [10] = experiment: cells; format: functional, cell-based; conditions: Homo sapiens
HEK293 [11] = experiment: NOD2 signaling inhibitors in MDP-stimulated cells, cell-based, uHTS, luminescence (AID 2001); format: functional; conditions: Homo sapiens
HEK293 [12] = experiment: cells; format: functional, cell-based; conditions: Homo sapiens; remark: listed apart in the source
HEK293 [13] = experiment: cells; format: functional, cell-based; conditions: Homo sapiens; remark: listed apart in the source
[14] = biological target: T1, Apoptotic protease-activating factor 1; format: functional
[15] = biological target: Nucleotide-binding oligomerization domain-containing protein 2 (Homo sapiens, UniProt Q9HC29); experiment: inhibition of NOD2-driven NF-kB reporter – cell-based, luminescence, uHTS, HEK293 (AID 1566); format: functional
[16] = inhibition of ARNT PAS-B/TACC3 complex formation – biochemical, AlphaScreen, cherry-picked samples, confirmation (AID 651703); format: functional, Homo sapiens;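 also: His-tagged ARNT PAS-B domain paired with GST-TACC3 E629A dimer coactivator fragment; potency of inhibitors that break up the complex and lower AlphaScreen signal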
[17] = biological target: T4, Small ubiquitin-related modifier 1 (Homo sapiens, UniProt P63165); experiment: SUMO1 protein-protein binding blockers, potency – biochemical, FRET, dose response (AID 624383); format: functional; conditions: read-out: IC50_Mean
[18] = biological target: T4, Small ubiquitin-related modifier 1; experiment: SUMO1 protein interaction blockers, potency – biochemical, fluorescence polarization, uHTS hits, dose response (AID 624382); format: functional; conditions: read-out: IC50_Mean
[19] = biological target: T5, DNA repair and recombination protein RAD54-like (Homo sapiens, UniProt Q92698); experiment: RAD54 Holliday junction migration blockers – biochemical, fluorescence, cherry-picked samples, dose series, confirmation (AID 651657); format: functional
T5 sequence (Q92698 whole entry): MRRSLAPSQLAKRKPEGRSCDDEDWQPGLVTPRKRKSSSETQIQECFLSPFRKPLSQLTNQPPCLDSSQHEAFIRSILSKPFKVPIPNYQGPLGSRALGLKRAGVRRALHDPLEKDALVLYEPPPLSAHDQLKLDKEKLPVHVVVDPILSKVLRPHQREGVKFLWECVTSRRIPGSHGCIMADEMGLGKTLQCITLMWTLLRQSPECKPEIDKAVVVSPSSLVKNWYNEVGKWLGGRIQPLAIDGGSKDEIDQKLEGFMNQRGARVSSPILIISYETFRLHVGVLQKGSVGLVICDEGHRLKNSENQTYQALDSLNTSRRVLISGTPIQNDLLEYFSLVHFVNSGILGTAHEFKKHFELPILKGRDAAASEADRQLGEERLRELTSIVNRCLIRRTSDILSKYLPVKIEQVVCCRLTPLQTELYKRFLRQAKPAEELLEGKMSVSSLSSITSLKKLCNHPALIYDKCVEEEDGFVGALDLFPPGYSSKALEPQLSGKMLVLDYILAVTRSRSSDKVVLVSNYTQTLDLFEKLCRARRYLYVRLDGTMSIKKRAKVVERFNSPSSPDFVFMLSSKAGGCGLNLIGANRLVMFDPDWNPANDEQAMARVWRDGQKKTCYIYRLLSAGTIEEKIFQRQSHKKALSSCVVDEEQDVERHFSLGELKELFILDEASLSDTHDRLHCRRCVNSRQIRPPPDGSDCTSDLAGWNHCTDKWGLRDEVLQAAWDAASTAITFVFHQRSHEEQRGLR

HEK293 [20] = experiment: EBV LMP1 TES2 canonical NF-kB signalling blockers – cell-based, HEK293, luciferase, cherry-pick, dose response (AID 588343); format: functional; conditions: Homo sapiens
[21] = loss of viability in HepG2 cells – cell-based, CellTiter-Glo, cherry-picked, cytotoxicity control for Shn3 inhibitor project, dose response (AID 624134); format: functional
INS1 = experiment: INS-1E survival protection against cytokine death – cell-based, luminescence, retest, dose response (AID 449756); format: functional; conditions: Rattus norvegicus;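 also: cell death triggered by IL-1 beta plus TNF-alpha plus IFN-gamma mixture; protective hits raise ATP signal compared with cytokine alone wells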
[22] = non-specific 3'UTR reporter inhibition in Clone20-Shn3RL – cell-based, Renilla luciferase, cherry-picked, counter-screen for Shn3 inhibitor project, dose response (AID 624133); format: functional
[23] = biological target: T6, Ubiquitin-conjugating enzyme E2 N (Homo sapiens, UniProt P61088); format: functional
T6 sequence (P61088 whole entry): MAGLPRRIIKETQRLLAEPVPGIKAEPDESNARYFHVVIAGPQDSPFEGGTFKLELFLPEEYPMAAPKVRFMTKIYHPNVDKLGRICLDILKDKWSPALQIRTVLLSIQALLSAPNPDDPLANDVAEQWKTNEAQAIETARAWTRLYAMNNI

Bcl-2-related protein A1 = biological target: T7, Bcl-2-related protein A1 (Mus musculus, UniProt Q07440); format: functional;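 also: confirmatory dose–response counterscreen on Bfl-1, used to check hits from a UBC13 polyubiquitin inhibitor campaign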
T7 sequence (Q07440 whole entry): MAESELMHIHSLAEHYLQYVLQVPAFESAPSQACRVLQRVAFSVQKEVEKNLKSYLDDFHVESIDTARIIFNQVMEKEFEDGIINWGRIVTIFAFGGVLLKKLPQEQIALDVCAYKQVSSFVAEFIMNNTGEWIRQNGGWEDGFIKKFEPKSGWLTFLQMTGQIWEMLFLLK

[24] = reduction of Shn3 3'UTR-driven luciferase in osteoblasts – cell-based, Clone20 osteoblasts, firefly luciferase, cherry-picked, dose response (AID 624132); format: functional;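 also: firefly luciferase luminescence from reporter carrying the Shn3 3'UTR in osteoblasts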
[25] = biological target: T6, Ubiquitin-conjugating enzyme E2 N; format: functional; remark: listed apart in the source
[26] = Luminescence Cell-Based Dose Retest to Confirm Inhibitors of Cancer Stem Cells. [Related pubchem assays (depositor defined):AID2717, AID2721]; format: functional; conditions: Homo sapiens
H9c2 = experiment: cells; format: functional, cell-based; conditions: Rattus norvegicus, H9c2, Myocardium;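 also: confirmatory concentration-response retest of ultra-high-throughput screening hits for modulation of myocardial damage; cell death induced by hydrogen peroxide oxidative stress; compound pretreatment for 60 min then peroxide exposure for 2 h; potency is for protecting the cells against peroxide damage rather than for killing them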
Interleukin-8 = biological target: T8, Interleukin-8 (Homo sapiens, UniProt P10145); experiment: Dose Response confirmation of uHTS small molecule hits for cystic fibrosis induced NFkb Inhibitors in a PAF-induced IL8 counterscreen.; format: functional; conditions: read-out: IC50_Mean
T8 sequence (P10145 whole entry): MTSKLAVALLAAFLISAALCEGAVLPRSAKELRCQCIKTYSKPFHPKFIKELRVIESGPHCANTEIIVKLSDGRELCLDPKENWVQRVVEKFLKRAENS
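For EC50 Mean in this document: caspase-3 cleavage of fluorogenic Rh110 DEVD substrate downstream of apoptosome activation.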

T4 sequence (P63165 whole entry): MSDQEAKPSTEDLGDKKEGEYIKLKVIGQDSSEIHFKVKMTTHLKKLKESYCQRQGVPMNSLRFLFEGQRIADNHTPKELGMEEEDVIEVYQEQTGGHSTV
Chain of Hepatocyte nuclear factor 4-alpha (P41235 whole entry, the tested form may be a part): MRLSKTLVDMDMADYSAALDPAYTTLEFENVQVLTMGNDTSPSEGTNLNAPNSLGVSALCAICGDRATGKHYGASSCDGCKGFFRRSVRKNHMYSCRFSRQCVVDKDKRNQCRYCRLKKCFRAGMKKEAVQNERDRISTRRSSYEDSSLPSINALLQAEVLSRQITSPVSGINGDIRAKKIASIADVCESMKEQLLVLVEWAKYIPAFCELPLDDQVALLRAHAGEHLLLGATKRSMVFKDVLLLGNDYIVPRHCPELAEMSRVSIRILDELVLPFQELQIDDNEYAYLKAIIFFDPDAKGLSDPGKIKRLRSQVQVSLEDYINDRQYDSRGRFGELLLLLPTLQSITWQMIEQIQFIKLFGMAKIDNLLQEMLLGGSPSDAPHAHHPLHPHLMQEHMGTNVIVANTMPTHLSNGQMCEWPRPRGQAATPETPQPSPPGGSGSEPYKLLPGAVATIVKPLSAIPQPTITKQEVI
Chain of Ras and Rab interactor 1/Tyrosine-protein kinase ABL1 (P00519 whole entry): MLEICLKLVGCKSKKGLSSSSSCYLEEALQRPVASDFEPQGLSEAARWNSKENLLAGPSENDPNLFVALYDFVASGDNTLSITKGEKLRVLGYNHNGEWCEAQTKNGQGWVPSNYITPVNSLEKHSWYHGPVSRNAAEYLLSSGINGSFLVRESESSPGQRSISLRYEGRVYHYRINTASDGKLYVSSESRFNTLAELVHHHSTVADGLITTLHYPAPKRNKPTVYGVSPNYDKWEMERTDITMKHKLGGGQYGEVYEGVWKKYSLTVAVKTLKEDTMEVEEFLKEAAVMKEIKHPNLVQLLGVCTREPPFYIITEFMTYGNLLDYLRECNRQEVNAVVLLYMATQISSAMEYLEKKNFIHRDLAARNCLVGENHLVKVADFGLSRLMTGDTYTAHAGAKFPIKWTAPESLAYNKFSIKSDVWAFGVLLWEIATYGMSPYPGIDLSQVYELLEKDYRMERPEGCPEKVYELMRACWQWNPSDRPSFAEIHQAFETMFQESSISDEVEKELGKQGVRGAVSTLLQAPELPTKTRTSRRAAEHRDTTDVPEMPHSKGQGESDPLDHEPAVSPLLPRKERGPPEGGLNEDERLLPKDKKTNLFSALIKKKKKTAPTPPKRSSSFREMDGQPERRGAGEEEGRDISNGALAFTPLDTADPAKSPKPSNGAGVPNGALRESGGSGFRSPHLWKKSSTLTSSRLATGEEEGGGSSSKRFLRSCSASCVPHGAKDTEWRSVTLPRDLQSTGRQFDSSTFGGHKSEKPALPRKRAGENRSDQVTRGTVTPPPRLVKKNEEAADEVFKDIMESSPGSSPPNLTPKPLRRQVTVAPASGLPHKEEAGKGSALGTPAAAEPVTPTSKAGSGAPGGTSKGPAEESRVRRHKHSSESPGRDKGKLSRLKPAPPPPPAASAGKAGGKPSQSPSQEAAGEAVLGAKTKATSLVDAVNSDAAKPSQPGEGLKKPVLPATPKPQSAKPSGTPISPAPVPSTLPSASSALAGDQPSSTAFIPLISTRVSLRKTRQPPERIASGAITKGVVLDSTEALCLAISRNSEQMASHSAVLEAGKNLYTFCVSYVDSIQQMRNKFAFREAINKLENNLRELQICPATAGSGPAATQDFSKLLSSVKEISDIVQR
Chain of Ras and Rab interactor 1/Tyrosine-protein kinase ABL1 (Q13671 whole entry): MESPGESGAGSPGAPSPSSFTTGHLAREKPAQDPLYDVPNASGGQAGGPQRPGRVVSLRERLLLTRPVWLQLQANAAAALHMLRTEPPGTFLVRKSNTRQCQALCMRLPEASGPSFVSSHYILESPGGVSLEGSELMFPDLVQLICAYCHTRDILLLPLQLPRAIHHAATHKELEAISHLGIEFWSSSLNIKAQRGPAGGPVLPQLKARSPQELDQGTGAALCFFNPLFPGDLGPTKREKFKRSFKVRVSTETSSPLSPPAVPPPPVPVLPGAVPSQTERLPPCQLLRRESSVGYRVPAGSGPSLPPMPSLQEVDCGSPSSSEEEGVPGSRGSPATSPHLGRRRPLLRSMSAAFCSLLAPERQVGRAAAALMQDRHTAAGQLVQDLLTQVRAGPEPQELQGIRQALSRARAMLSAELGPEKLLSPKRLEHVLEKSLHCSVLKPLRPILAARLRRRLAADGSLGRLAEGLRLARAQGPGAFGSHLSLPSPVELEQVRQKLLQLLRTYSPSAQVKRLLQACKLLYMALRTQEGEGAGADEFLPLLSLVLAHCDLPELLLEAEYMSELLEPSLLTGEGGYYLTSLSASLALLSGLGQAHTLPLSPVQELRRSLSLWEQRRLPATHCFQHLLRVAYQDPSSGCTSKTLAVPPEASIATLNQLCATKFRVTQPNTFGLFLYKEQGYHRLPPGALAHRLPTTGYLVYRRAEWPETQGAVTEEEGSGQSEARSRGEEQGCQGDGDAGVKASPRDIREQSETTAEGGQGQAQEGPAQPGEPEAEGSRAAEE
Chain of Nucleotide-binding oligomerization domain-containing protein 2 (Q9HC29 whole entry, the tested form may be a part): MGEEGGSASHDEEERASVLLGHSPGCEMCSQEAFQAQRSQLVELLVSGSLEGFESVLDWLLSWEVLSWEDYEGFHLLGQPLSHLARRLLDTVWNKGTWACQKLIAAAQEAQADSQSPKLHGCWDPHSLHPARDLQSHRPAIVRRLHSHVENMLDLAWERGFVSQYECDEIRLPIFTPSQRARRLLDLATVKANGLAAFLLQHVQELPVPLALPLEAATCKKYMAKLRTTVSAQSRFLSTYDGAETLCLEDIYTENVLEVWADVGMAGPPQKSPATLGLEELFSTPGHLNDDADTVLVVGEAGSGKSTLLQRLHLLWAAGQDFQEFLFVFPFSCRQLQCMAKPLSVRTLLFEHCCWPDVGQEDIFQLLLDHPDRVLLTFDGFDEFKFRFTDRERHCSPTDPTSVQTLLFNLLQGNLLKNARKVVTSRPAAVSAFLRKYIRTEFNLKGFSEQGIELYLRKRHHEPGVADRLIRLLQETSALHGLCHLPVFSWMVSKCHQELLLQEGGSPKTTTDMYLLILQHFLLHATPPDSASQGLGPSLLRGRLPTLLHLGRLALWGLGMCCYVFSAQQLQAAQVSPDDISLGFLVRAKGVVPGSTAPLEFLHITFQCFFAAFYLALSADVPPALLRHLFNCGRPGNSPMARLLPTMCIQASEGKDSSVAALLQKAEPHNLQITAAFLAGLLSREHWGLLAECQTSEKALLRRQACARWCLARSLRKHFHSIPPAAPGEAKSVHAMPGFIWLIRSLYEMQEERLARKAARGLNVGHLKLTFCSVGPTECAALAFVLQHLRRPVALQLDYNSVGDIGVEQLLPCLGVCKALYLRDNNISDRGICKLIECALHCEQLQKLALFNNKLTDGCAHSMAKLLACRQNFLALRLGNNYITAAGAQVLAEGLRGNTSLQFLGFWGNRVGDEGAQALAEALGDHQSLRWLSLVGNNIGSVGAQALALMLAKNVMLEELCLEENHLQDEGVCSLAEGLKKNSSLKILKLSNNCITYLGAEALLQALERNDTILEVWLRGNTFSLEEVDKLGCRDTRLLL

COc1ccc(C2=NOC3(CC(=O)N(c4ccc(C)cc4)C3=O)C2)cc1 (configuration not stated)
EC50 [1]: > 100 µM (inactive)

CCOC(=O)N1CCN(C(=O)Nc2ccc(NC(=O)N3CCN(C(=O)OCC)CC3)cc2)CC1
IC50 [2]: 7.81 µM (active)

CC1=CC(C)(C)Nc2ccc(OC(=O)CN3C(=O)C4CCCCC4C3=O)cc21 (configuration not stated)
EC50 [3]: 4.74 µM (active)
IC50 [4]: 4.53 µM (active)
EC50 [5]: 7.23 µM (active)

CCCCn1c(SCC(=O)NCc2ccco2)nnc1-c1ccoc1C
IC50 [4]: 12.9 µM (inactive)
IC50 [6]: 6.25 µM (active)

COc1ccc(NC(=O)/C(C#N)=C\c2ccc(OCc3ccc(C(=O)O)cc3)c(OC)c2)cc1
IC50 [7]: 35 µM (inactive)
IC50 [6]: 1.57 µM (active)
IC50 [8]: 31.5 µM (inactive)

CCCCc1c(C)c(C#N)c2nc3ccccc3n2c1O
EC50 (HEK293 [9]): 4.1 µM (active)
IC50 (HEK293 [10]): 13.1 µM (active)
IC50 (HEK293 [11]): 10.8 µM (inactive)
IC50 (HEK293 [12]): > 20 µM (inactive)
IC50 (HEK293 [13]): > 20 µM (inactive)
IC50 [14]: 7.79 µM (active)
EC50 [15]: 8.9 µM (active)

O=C(NCCCn1ccnc1)c1cc2cc([N+](=O)[O-])ccc2oc1=O
AC50 [16]: 131 µM (active)

COc1ccc(C(=O)Nc2cc(C)c(NC(=O)c3ccccc3OC)cn2)cc1
IC50 [17]: 1.48 µM (active)
IC50 [18]: > 66.6 µM (inactive)
AC50 [19]: 100 µM (inactive)
AC50 (HEK293 [20]): 169 µM (active)

NC1=NC[C@@H](CC2CCCCC2)N1CCc1cc(C(F)(F)F)cc(C(F)(F)F)c1
AC50 [21]: 14.7 µM (active)
AC50 (INS1): 7.06 µM (active)
AC50 [22]: 24.8 µM (active)
IC50 [23]: 19.6 µM (active)
IC50 (Bcl-2-related protein A1): > 20 µM (inactive)
AC50 [24]: 9.92 µM (active)
IC50 [14]: 60.4 µM (active)
IC50 [25]: 11.5 µM (active)
AC50 [26]: 3.19 µM (active)

COc1ccc(CNc2nn3c(-c4cccc(C(=O)N(C)C)c4)cnc3s2)cc1
IC50 (H9c2): 42.1 µM (inactive)
IC50 (Interleukin-8): 18 µM (inactive)

CC(CNc1ccc(Oc2ccccc2)cc1)C(=O)O (configuration not stated)
EC50 [1]: > 100 µM (inactive)

CCOC(=O)CCCCCC(=O)Nc1ccc2c(c1)C(=O)N([C@H](C)CO)C[C@@H](C)[C@@H](CN(C)C(=O)CCC(F)(F)F)OCCCC[C@H](C)O2
IC50 [2]: 3.59 µM (active)

CC(=O)Nc1ccc(NC(=O)c2cc(-c3ccc(C)cc3O)n[nH]2)cc1
IC50 [17]: 13.3 µM (active)
IC50 [18]: > 66.6 µM (inactive)
